“Also recorded” adds a separate entry of the source. Residues, ends and D or L forms follow the SMILES beside them.
Columns and labels:
CHO/APPwt cells [1] = experiment: Total cell associated cholesterol in CHO/APPwt cells; format: cell-based, Chinese hamster; conditions: 6KApoEp 0, 5 and 10 μM overnight
Experimental: (§1) Total cell associated cholesterol levels are represented as mean±s.d. (μg/mg of total intracellular protein) from three independent experiments. In addition, total plasma cholesterol levels in 3×Tg-AD mice treated with ApoEp (n=6) and 5×FAD mice treated with 6KApoEp (n=10) or PBS (Ctrl, n=10), as described in FIGS. 25A-26G, and in associated wild-type mice (WT) were analyzed by flourometric cholesterol quantitation kit (FIG. 31B). LDLR (FIG. 31C, top panel) and ApoE (middle panel) expression levels in brain homogenates were also analyzed by WB. […] (*P<0.05) and P>0.0.5, non-significant compared to control treatment.
CHO/APPwt cells were cultured overnight in 6-well plates at 2×10^6 cells/well in serum free DMEM, followed by washing 3 times with ice-cold PBS, lysis by sonication in chloroform:isopropanol:IGEPAL CA-630 (7:11:0.1) and centrifugation. The organic phase was transferred to a new tube, air dried at 50° C. to remove chloroform and diluted 10-fold in cholesterol assay buffer for cholesterol determination by flourometric cholesterol quantitation kit according to manufacturer's instructions (MilliporeSigma).

[2] = Plasma cholesterol and brain LDLR and ApoE expression in treated 3×Tg-AD and 5×FAD mice; format: in vivo, mouse; conditions: 5×FAD mice treated with 6KApoEp
Experimental: as §1

CHO/APPwt cells [3] = experiment: Aβ production in CHO/APPwt cells, treatment alone (Aβ1-40, 42 ELISA, 82E1 WB); format: cell-based, Chinese hamster; conditions: for Aβ production (Aβ1-40, 42): serum-free medium, 2 h (ELISA) or 16 h (WB)
Experimental: Chinese hamster ovary (CHO) cells overexpressing human wild-type amyloid precursor protein (APPwt) (CHO/APPwt cells) were cultured in 96-well plate at about 2×10^4/well in Dulbecco's modified Eagle's medium (DMEM) with 10% fetal bovine serum (FBS), 1 mM sodium pyruvate and 100 U/mL of penicillin/streptomycin for 18 hours.
CHO/APPwt cells were cultured in 96-well plate (about 2×10^4/well) in serum-free medium and treated with ApoE LDLR, FlagApoE LDLR (SEQ ID NO.: 1 with an N-terminal FLAG tag), BiotinApo LDLR (SEQ ID NO.: 1 with an N-terminal Biotin) and 3 lysinesApoE LDLR (3KApoE LDLR (SEQ ID NO.: 2)) at indicated doses for about 2 hours.
The conditioned media and cell lysates were prepared, and subjected to Aβ ELISA and protein assay.
CHO cells overexpressing human wild-type APP (CHO/APPwt) cells were cultured in 96-well plate at 2×10^4/well in Dulbecco's modified Eagle's medium (DMEM) with 10% fetal bovine serum (FBS), 1 mM sodium pyruvate and 100 U/mL of penicillin/streptomycin for 18 hours. […] 82E1 WB analyses as shown below the Aβ ELISA result histograms. The Aβ ELISA results are representative of three independent experiments with each condition triplicated and presented as mean±SD.
(residues 133-152, SEQ ID NO: 1)] as indicated for 2 and 16 hours (h). The conditioned media and cell lysates were analyzed by Aβ1-40, 42 ELISA (FIG. 10A), 82E1 WB analysis (FIG. 10B) and protein assay, respectively. In addition, (FIG. 10C) CHO/APPwt cells were cultured in 96-well plate (2×10^4/well) in serum-free DMEM and treated with FlagApoE-LBDP, BiotinApoE-LBDP and 3 lysineApoE-LBDP (3KApoE-LBDP) in comparing to ApoE-LBDP at indicated doses for 2 hours (h). […] (SEQ ID NO: 2); […]-[…] (SEQ ID NO: 10); Biotin-[…] (SEQ ID NO: 1 with an N-Terminal Biotin).
CHO cells engineered to express human wild-type APP (CHO/APPwt) or Swedish mutant APP (CHO/APPswe) were obtained. These cells were cultured in 96 or 24 well plates at 4×10^4 or 2×10^5 cells/well, respectively, in Dulbecco's modified Eagle's medium (DMEM) with 10% fetal bovine serum, 1 mM sodium pyruvate and 100 U/mL of penicillin/streptomycin (Invitrogen, Thermo Fisher Scientific). In addition, murine N2a cells transfected with APPwt (N2a/APPwt were obtained), SH-SY5Y cells transfected with APPswe and wild-type SH-SY5Y cells (ATCC, Manassas, Va.) were cultured as previously described^42. Primary hN2TM human neurons (Neuromics, Edina, Minn.) were cultured in hN2TM human neuron culture media and primary HCN2 human neurons (ATCC) were cultured in DMEM with 4 mM L-glutamine adjusted to contain 1.5 g/L sodium bicarbonate, 4.5 g/L glucose, fetal bovine serum (10%).
(§2) Aβ1-40, 42 and sAPPα from cell and brain homogenates were detected by Aβ1-40, 42 and sAPPα ELISA kits (IBL-America), strictly following the manufacturer's instructions^43,44.
(§3) WB analyses were performed as previously described^43,44. Briefly, 10% bicine/tris gel containing 8 M urea was used for separation of Aβ1-40, 42 species from brain homogenates or CHO cell conditioned media or lysates, followed by transfer to 0.2 μm pore-size nitrocellulose membrane (Bio-Rad, Hercules, Calif.). The membrane was boiled in PBS for 3 to 5 min before blocking to enhance sensitivity and then incubated with 82E1. For all other proteins detected by WB, 10% tris-SDS gels were used. Densitometry analysis was performed as previously described using a FluorS Multiimager with Quantity One™ software 43.

CHO/APPwt cells [4] = experiment: Inhibition of apoE-/lipoprotein-induced Aβ production in CHO/APPwt cells (Aβ ELISA); format: cell-based, Chinese hamster
Experimental: CHO/APPwt cells were treated with apoE LDLR binding domain peptide (aa 133-152, ApoEp), FlagApoEp, BiotinApoEp, 3K (lysine) ApoEp, 3D (aspartate) ApoEp or scrambled peptide at 0 to 25 μM, followed after 2 h by analysis of Aβ levels in conditioned media by ELISA (Aβ ELISA, FIGS. 19A and 19C) and after 16 h by analysis of Aβ in cell lysates by Western blot using 82E1 antibody (Aβ WB, FIG. 19B). […] Pre-incubating with HDL has been previously reported to lipidate apoE. Hu astro med was obtained from human astrocytes (CCF-STTG1/ATCC® CRL-1718™) as described previously. […]
CHO cells were also transfected with pCMV6 APP695 or pCMV6 E1 depleted APP695, yielding cells expressing wild type APP695 (CHO/APPwt) or truncated APP695 lacking the N-terminal E1 region (CHO/APPdE1). […] Diagram indicates important domains identified in APP, including N-terminal E1 region (top panel), and APPwt and APPdE1 proteins in cell lysates and conditioned media derived from the transfected CHO cells as determined by WB using 6E10 (middle panels). […] Asterisk indicates P<0.05 compared with the corresponding absence of 22C11, 6H3B5 or 6KApoEp, or with corresponding CHO/APPwt cells, as determined by one-way ANOVA. […]
as §2

[5] = molecular target: T1, human wild-type amyloid precursor protein (APPwt) expressed in CHO/APPwt cells (human, UniProt P05067 18-770); experiment: cell-based or functional assay
T1 sequence (P05067 18-770): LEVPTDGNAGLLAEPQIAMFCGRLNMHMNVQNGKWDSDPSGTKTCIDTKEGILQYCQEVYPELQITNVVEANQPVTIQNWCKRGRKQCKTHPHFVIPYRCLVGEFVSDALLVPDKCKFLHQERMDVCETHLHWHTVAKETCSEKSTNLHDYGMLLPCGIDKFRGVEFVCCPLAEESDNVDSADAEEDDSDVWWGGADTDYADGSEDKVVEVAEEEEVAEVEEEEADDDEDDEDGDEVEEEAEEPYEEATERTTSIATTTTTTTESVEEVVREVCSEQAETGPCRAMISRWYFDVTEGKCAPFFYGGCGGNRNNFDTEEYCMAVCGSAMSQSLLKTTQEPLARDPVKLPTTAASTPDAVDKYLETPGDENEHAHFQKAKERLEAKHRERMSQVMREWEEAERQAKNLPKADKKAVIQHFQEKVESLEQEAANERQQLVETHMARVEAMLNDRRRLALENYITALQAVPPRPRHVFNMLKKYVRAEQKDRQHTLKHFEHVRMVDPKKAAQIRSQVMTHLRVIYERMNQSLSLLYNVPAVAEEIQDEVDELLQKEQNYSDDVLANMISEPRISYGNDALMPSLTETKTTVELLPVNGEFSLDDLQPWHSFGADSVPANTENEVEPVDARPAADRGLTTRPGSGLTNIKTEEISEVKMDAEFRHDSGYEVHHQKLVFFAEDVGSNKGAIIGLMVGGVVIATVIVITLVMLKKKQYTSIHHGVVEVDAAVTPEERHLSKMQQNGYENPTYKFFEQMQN

[6] = molecular target: T2, human recombinant sAPPβ (rsAPPβ, without Aβ domain) (human, UniProt P05067 18-671, limits assumed); experiment: in vitro incubation 1 h at 37 °C, IP with 6H3B5, WB
T2 construct: domain: sAPPβ (without Aβ domain); Bought protein
T2 sequence (P05067 18-671 limits assumed): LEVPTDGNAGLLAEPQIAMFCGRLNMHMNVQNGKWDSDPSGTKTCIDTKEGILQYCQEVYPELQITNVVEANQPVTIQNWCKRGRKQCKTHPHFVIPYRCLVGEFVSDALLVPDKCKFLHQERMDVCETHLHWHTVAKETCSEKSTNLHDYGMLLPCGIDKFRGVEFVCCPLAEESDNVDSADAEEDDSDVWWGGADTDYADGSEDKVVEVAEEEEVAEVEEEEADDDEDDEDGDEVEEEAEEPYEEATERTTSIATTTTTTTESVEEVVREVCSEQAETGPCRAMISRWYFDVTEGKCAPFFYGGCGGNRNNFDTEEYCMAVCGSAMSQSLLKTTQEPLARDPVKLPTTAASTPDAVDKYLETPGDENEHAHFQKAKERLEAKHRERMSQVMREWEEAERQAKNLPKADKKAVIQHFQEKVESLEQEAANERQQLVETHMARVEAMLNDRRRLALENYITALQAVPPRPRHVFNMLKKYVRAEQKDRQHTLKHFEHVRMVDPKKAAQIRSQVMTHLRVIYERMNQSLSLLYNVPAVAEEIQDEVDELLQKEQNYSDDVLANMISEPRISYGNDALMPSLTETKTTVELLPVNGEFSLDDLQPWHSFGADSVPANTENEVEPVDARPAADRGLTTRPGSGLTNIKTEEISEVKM

[7] = molecular target: T3, CHO/APPwt cell conditioned medium-derived sAPPα (cmsAPPα) (human, UniProt P05067 18-687, limits assumed); experiment: as above
T3 construct: domain: sAPPα
T3 sequence (P05067 18-687 limits assumed): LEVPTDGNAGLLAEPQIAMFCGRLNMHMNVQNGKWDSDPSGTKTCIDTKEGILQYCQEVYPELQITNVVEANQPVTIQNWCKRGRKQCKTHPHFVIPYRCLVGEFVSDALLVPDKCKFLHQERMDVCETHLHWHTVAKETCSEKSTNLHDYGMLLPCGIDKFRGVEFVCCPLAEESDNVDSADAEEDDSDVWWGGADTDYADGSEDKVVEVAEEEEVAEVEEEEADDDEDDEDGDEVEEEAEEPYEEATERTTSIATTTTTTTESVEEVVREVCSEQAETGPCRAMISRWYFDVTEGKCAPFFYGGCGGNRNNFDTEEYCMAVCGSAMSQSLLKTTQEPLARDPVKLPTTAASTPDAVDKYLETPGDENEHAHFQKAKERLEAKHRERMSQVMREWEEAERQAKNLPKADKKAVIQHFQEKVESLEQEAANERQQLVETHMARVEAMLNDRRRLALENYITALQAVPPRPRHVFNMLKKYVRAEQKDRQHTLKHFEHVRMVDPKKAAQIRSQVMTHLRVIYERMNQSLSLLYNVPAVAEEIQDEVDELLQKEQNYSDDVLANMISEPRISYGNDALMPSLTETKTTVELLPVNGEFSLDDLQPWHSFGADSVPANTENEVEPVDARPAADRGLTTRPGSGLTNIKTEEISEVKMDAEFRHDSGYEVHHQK

[8] = molecular target: T4, human recombinant sAPPα (rsAPPα) (human, UniProt P05067 18-687, limits assumed); experiment: as above
T4 construct: domain: sAPPα; also called human sAPPα protein
T4 sequence (P05067 18-687 limits assumed): as above

[9] = molecular target: T5, total secreted APP (t-sAPP) in CHO/APPwt conditioned media (human, UniProt P05067 18-687, limits assumed); experiment: CHO/APPwt cells treated 2 h; IP of conditioned media with 6H3B5 or pN-APP and WB
T5 construct: domain: total secreted APP (t-sAPP); Mixture of secreted APP ectodomain forms
T5 sequence (P05067 18-687 limits assumed): as above
Experimental: as §3, with “described^{43,44}.” for “described^43,44.”, “43. Immunoprecipitation (IP) was performed by first incubating conditioned media or cell lysates with appropriate antibodies and Protein-A/G Mag Sepharose beads (GE Healthcare Life Sciences, Pittsburgh, Pa.) overnight with gentle rocking at 4° C., followed by three washes with binding buffer (50 mM tris, 150 mM NaCl, pH 7.5) and analysis by WB.” for “43.”

[10] = molecular target: T1, human wild-type amyloid precursor …; experiment: CHO/APPwt cells treated 2 h; IP of cell lysates with 6H3B5 or pN-APP and WB; immunofluorescence
Experimental: as §3, with “described^{43,44}.” for “described^43,44.”, “43. Immunoprecipitation (IP) was performed by first incubating conditioned media or cell lysates with appropriate antibodies and Protein-A/G Mag Sepharose beads (GE Healthcare Life Sciences, Pittsburgh, Pa.) overnight with gentle rocking at 4° C., followed by three washes with binding buffer (50 mM tris, 150 mM NaCl, pH 7.5) and analysis by WB.” for “43.”

CC(C)C[C@H](NC(=O)[C@H](CCCNC(=N)N)NC(=O)[C@@H](NC(=O)[C@H](CCCNC(=N)N)NC(=O)[C@H](CC(C)C)NC(=O)[C@H](CCCCN)NC(=O)[C@H](CCCCN)NC(=O)[C@H](CCCCN)NC(=O)[C@H](CCCCN)NC(=O)[C@H](CCCCN)NC(=O)[C@@H](N)CCCCN)C(C)C)C(=O)N[C@@H](C)C(=O)N[C@@H](CO)C(=O)N[C@@H](Cc1c[nH]cn1)C(=O)N[C@@H](CC(C)C)C(=O)N[C@@H](CCCNC(=N)N)C(=O)N[C@@H](CCCCN)C(=O)N[C@@H](CC(C)C)C(=O)N[C@@H](CCCNC(=N)N)C(=O)N[C@@H](CCCCN)C(=O)N[C@@H](CCCNC(=N)N)C(=O)N[C@@H](CC(C)C)C(=O)N[C@@H](CC(C)C)C(=O)N[C@@H](CCCNC(=N)N)C(=O)N[C@@H](CC(=O)O)C(=O)N[C@@H](C)C(=O)O [6KApoEp] (H-KKKKKKLRVRLASHLRKLRKRLLRDA-OH; N-terminus and C-terminus assumed)
cell-associated cholesterol levels (CHO/APPwt cells [1]): without altering cell-associated or plasma cholesterol levels
plasma cholesterol levels [2]: without altering cell-associated or plasma cholesterol levels

ApoB100: apolipoprotein B, human plasma (Athens Research & Technology)
sAPPα secretion (CHO/APPwt cells [3]): decreased sAPPα secretion
Aβ production (Aβ1-40, 42) (CHO/APPwt cells [3]): increased Aβ1-40, 42 production; also recorded: markedly promote amyloid β protein (Aβ) production

DYKDDDDK-LRVRLASHLRKLRKRLLRDA (DYKDDDDKLRVRLASHLRKLRKRLLRDA; N-terminal FLAG ApoE recombinant polypeptide) [FlagApoEp, ApoEp modified by N-terminal addition of Flag-Tag]
Aβ production (Aβ1-40, 42) (CHO/APPwt cells [3]): greatly enhanced the efficacy of ApoEp to increase Aβ1-40, 42 levels

KKKLRVRLASHLRKLRKRLLRDA (polypeptide configured to modulate binding of a protein the an ApoE receptor) [3KApoEp, ApoEp with 3 N-terminal lysines]
basal and apoE4-induced Aβ production (CHO/APPwt cells [4]; peptide 10 μM for 15 min, then with or without hu rec ApoE4 10 μg/mL for 2 hours): moderately
Aβ generation induced by human plasma ApoE3, human recombinant ApoE3 and ApoE4, human plasma LDL and ApoB100 (CHO/APPwt cells [4]; pre-treatment at about 10 μM, then inducer for about 2 hours): Markedly Inhibits Aβ Generation
Aβ production (Aβ1-40, 42) (CHO/APPwt cells [3]): terminated this amyloidogenic effect

KKKKKKLRVRLASHLRKLRKRLLRDA [6KApoEp (ApoE LDLR binding domain peptide with 6 N-terminal lysines)]
apoE4-induced Aβ production in CHO/APPwt cells (Aβ ELISA and WB), IC50 [5]: 320 to 630 nM

B1: 6K (6 lysine peptide) (peptide)
peptide: KKKKKK
notes: Control peptide of six lysines; also called 6K lysine
binding result [6]: no binding (tested: 100 nM)
binding result [7]: no binding (tested: 100 nM)
binding result [8]: no binding (tested: 100 nM)
binding result [9]: no binding (tested: 10 µM)
binding result [10]: no binding (tested: 10 µM)
